Data published in patent US20240301023A1 (priority 2020, published 2024).
Read-outs that look alike come from different tables or passages of the source. Square brackets hold non-standard residues; d marks the D form. Peptide text beside a SMILES is read from it. Phe(4-NO2) = N[C@@H](Cc1ccc([N+](=O)[O-])cc1)C(=O)O; Phe(4-Cl) = N[C@@H](Cc1ccc(Cl)cc1)C(=O)O; NMeR = CN[C@@H](CCCNC(=N)N)C(=O)O; Aoc = NCCCCCCCC(=O)O; Sar = CNCC(=O)O

Legend:
[1] = test system: Freund's Complete Adjuvant model of inflammatory nociception; settings: rat, in vivo
[2] = biological target: Kappa opioid receptor (KOR) (Homo sapiens, UniProt P41145); test: cell-based; assay type: cell-based
Stability in rat plasma = assay type: in vitro ADME; settings: both sexes, Wistar, 37° C., 100 μM peptide
Protocol: Stability in plasma was assessed in rat plasma. Plasma was collected in-house from adult mixed-gender Wistar rats, prepared using 2% EDTA as per standard practice. Peptides were added to the rat plasma samples at 37° C. in a water bath with final concentrations of 100 μM (1:9 peptide in water:plasma). The assay was then carried out in the same manner as the assay in bovine trypsin.

[3] = biological target: T1, bovine pancreatic trypsin (Bos taurus, UniProt P00760); test: Stability in bovine trypsin; assay type: in vitro ADME; settings: bovine pancreatic trypsin 2.5 μg/mL, NH4HCO3 buffer pH 8-8.5, 37° C., 100 μM peptide; for half-life at 100 µM: bovine pancreatic trypsin solution
T1 construct: from tissue; host or cells: bovine pancreas
T1 sequence (P00760 24-246): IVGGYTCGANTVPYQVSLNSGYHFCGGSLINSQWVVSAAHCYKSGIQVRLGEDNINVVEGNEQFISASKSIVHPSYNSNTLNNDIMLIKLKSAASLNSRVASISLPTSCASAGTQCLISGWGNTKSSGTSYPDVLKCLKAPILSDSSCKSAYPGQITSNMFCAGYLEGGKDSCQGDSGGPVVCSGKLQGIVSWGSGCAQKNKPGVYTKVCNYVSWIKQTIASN
Protocol: The stability of the peptides was analysed in typsin, plasma and water. Stability of linear peptides is generally low due to rapid degradation by endogenous peptidases and proteases. While stability in bodily fluids is important, absolute stability may not be prudent or desirable due to potential build-up in vivo leading to adverse side effects, and/or hazards to the environment and recirculation of exceptionally stable compounds in waterways. Thus, compounds that are extremely stable in either plasma or typsin are not generally considered “drug-like”.
Stability in bovine trypsin was analysed for SEQ ID Nos. 2 to 7 and 11 to 17. Peptides were added to trypsin solution (bovine pancreatic trypsin 2.5 μg/mL in NH4HCO3 buffer, pH approximately 8-8.5, 37° C.) in a water bath with final concentrations of 100 μM peptide. A 50 μL sample was taken immediately and precipitated in 150 μL of cold acetonitrile (9:1 acetonitrile:water) This sample became the baseline, or t=0 min sample. The trypsin peptide mixture was immediately returned to the water bath and subsequent 50 μL samples were taken at 5, 10, 15, 30, 60 and 120 min. At each time point, the 50 μL sample was collected and immediately added to cold acetonitrile (ACN). Each sample was vortexed for 30 sec and then centrifuged at room temperature (RT) (13K rpm, 5 min). 150 μL of the supernatant was taken and directly place in a glass HPLC vial for LCMS analysis.

Mu opioid receptor (MOR) = Mu opioid receptor (MOR) (Homo sapiens, UniProt P35372); test: cell-based; assay type: cell-based
[4] = biological target: Delta opioid receptor (DOR) (Homo sapiens, UniProt P41143); test: cell-based; assay type: cell-based
Stability in water = assay type: physicochemical; settings: ultra-pure Milli-Q water
Protocol: Stability in water was carried out by incubating each candidate in ultra-pure, Milli-Q water (Millipore Corporation). Again, volumes, times and preparation protocols were exactly as described above in plasma stability method above.

KOR [5] = biological target: T2, KOR (Homo sapiens, UniProt P41145); test: cell-based; assay type: cell-based
KOR [6] = biological target: T2, KOR; test: biochemical; assay type: binding
KOPr = KOPr (Homo sapiens, UniProt P41145); assay type: cell-based
[7] = Pharmacokinetic parameters after i.v. administration in rats; assay type: in vivo; settings: rat; for half-life / clearance / Vd: iv, dose 0.3 mg/kg (SEQ ID NO. 19), 1 mg/kg (SEQ ID NO. 24); for clearance: read-out: CLtotal; for Vd: read-out: Vdss; for opioid-like adverse effects (e.g. respiratory depression, sedation): 0.3 mg/kg (SEQ ID NO 19), 1 mg/kg (SEQ ID NO 24)
Text: Methods are as previously reported (Hill et al., ACS Med. Chem. Lett. 2014, 5(10), 1148-51; Lohman et al., Chem. Commun. (Camb), 2019, 55(89), 13362-13365; Neilsen et al., Org. Lett., 2012, 14(22), 5720-3; Neilsen et al, Chembiochem, 2015, 16(16), 2289-93; Justyna et al., Current Drug Targets, 2013, 14(7), 798-816)). Rats were surgically implanted with a jugular vein catheter (sterile polyethylene, o.d. 0.96 mm i.d. 0.58 mm, Microtube Extrusions, Aust.) and allowed to recover overnight. Baseline blood samples (t=0) were taken prior to peptide administration directly from the indwelling jugular vein catheter. Peptide was administered directly via the catheter (i.v route), followed by a 200 μL chaser volume of heparinised saline (20 U/mL) to flush the line. Further blood samples (200 μL/sample) were collected directly from the intravenous catheter at t=1, 5 15, 30, 60, 90 120 as 180 minutes post-administration. Volumes taken were replaced with heparinised saline to avoid hypovolaemia. Blood samples were immediately centrifuged (14 k rpm, 5 min) and plasma supernatant snap frozen on dry ice for later processing. Plasma samples were thawed and diluted 1 in 4 acetonitrile, vortexed, sonicated and centrifuged. Supernatants were transferred to HPLC vials for LCMS analysis.
A Triple Quad Mass-Spectrometer (model 6460, Agilent Technologies) coupled to a Bidentate C18 HPLC column (Cogent, 100 Å, 4 μM) was used to analyse all samples. Separations were carried out using a binary solvent gradient. A Multiple Reaction Monitoring (MRM) protocol was developed for each individual peptide to maximise sensitivity of the Mass-spec and optimise the Limit of Detection (LOD) from a serially diluted standard curve, performed in both acetonitrile solvent and neat rat plasma.
Samples were analysed using MassHunter Software packages, and area under the curve (AUC) was measured for each peak of interest in the MRM, as a direct measure of concentration of compound ions in the sample. AUCs were converted to plasma concentrations (Cp; μg/mL and μM) using the standard curves generated in plasma. Data was analysed using MS Excel software. A two compartment model was adopted to determine the pharmacokinetic properties of each peptide in the rat. The first phase describes the distribution throughout the circulatory compartment, and the second phase describes the elimination/steady state concentration in plasma/tissue. Plasma half-life, volume of distribution and clearance were determined from the steady-state elimination phase.

Delta opioid receptor (DOR), sequence (P41143 whole entry): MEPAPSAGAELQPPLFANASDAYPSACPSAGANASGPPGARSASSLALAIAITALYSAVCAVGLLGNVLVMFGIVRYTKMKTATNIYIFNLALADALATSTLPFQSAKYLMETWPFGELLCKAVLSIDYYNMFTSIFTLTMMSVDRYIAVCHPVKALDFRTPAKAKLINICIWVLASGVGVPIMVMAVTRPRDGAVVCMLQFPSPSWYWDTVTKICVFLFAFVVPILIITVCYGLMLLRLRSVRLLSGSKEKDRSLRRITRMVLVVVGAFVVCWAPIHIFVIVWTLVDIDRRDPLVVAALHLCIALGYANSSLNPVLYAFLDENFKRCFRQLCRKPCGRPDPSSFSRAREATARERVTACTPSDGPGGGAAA
Mu opioid receptor (MOR), sequence (P35372 whole entry): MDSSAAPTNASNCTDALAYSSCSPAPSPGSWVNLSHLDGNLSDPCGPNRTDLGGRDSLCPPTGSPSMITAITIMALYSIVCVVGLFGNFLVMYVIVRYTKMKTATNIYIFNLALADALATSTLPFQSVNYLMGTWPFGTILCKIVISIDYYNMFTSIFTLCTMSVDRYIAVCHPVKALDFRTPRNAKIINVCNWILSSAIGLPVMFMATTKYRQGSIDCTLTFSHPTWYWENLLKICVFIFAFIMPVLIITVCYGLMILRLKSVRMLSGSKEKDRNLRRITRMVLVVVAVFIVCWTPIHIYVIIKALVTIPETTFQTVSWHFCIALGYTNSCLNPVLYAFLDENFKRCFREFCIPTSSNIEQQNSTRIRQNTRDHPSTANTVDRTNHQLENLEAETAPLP
Kappa opioid receptor (KOR), sequence (P41145 whole entry): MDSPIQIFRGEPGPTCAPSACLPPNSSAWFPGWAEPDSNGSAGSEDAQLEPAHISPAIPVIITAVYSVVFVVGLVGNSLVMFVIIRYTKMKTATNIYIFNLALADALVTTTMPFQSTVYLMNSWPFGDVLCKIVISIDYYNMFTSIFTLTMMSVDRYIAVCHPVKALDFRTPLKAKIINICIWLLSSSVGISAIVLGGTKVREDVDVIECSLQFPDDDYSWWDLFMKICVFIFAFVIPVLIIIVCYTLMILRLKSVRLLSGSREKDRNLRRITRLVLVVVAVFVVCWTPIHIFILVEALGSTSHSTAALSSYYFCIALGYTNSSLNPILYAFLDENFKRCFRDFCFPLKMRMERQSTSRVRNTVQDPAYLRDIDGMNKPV
T2 sequence (P41145 whole entry): as above
KOPr, sequence (P41145 whole entry): as above

Structure (SMILES)	cAMP assay KOR 1 μM [2]	cAMP assay KOR 10 μM [2]	half-life at 100 µM (Stability in rat plasma) [h]	EC50 (Mu opioid receptor (MOR)) [nM]	cAMP assay MOR 1 μM (Mu opioid receptor (MOR))	cAMP assay MOR 10 μM (Mu opioid receptor (MOR))	EC50 [4] [nM]	cAMP assay DOR 1 μM [4]	cAMP assay DOR 10 μM [4]	half-life at 100 µM (Stability in water) [h]	cAMP activity in the presence of naloxone, KOR cells [2]	KOR desensitisation (change of cAMP maximal response after pre-treatment) (KOR [5])	bias factor (β) relative to U50488H (KOPr)	pERK1/2 activity (KOPr)	further results
CN1CC[C@]23c4c5ccc(O)c4O[C@H]2[C@@H](O)C=C[C@H]3[C@H]1C5 [Morphine, reference compound]	–	–	–	–	–	–	–	–	–	–	–	–	–	–	paw withdrawal threshold in the contralateral (uninflamed, untreated) paw at 120 minutes compared to baseline [1]: significantly reduced
CC(C)C[C@H](NC(=O)[C@H](Cc1ccccc1)NC(=O)CN(C)C(=O)[C@@H](N)Cc1ccc(O)cc1)C(=O)N[C@@H](CCCNC(=N)N)C(=O)N[C@@H](CCCNC(=N)N)C(N)=O [SEQ ID NO. 2, NH2-Tyr-Sar-Phe-Leu-Arg-Arg-NH2] (H-Y[Sar]FLRR-NH2)	21.65	32.41	1.61	6700	−2.5	12.41	> 10000	−0.47	21.96	> 16.7	–	–	–	–	half-life at 100 µM [3]: 0.03 h
CC(C)C[C@H](NC(=O)[C@H](Cc1ccc([N+](=O)[O-])cc1)NC(=O)CN(C)C(=O)[C@@H](N)Cc1ccc(O)cc1)C(=O)N[C@@H](CCCNC(=N)N)C(=O)N[C@H](CCCNC(=N)N)C(N)=O [SEQ ID NO. 4, NH2-Tyr-Sar-(4-NO2)Phe-Leu-Arg-DArg-NH2] (H-Y[Sar][Phe(4-NO2)]LR[dR]-NH2)	34.93	40.29	1.18	–	0.17	2.52	–	−0.75	2.04	–	significantly inhibited	no sign of desensitisation	bias towards cAMP	failed to show any pERK activity	EC50 [2]: 8.4 nM; Area under the curve (AUC) efficacy compared to U50488H [1]: significantly better efficacy than U50488H; Half Life Trypsin [3]: 0.257 h; IC50 (KOR [6]; read-out: IC50): 30.2 nM; Ki (KOR [6]; read-out: Ki): 2.8 nM
CC(C)C[C@H](NC(=O)[C@H](Cc1ccc([N+](=O)[O-])cc1)NC(=O)CN(C)C(=O)[C@@H](N)Cc1ccc(O)cc1)C(=O)N(C)[C@@H](CCCNC(=N)N)C(=O)N(C)[C@@H](CCCNC(=N)N)C(N)=O [SEQ ID NO. 19, NH2-Tyr-Sar-(4-NO2)Phe-Leu-NMA-NMA-NH2] (H-Y[Sar][Phe(4-NO2)]L[NMeR][NMeR]-NH2)	–	–	–	–	–	–	–	–	–	–	significantly inhibited	no sign of desensitisation	bias towards cAMP	failed to show any pERK activity	EC50 ([2]; read-out: Activity (EC50, nM) KOR): 31.1 nM; Area under the curve (AUC) efficacy compared to U50488H [1]: significantly better efficacy than U50488H; Efficacy Index (Ie) relative to morphine [1]: statistically significantly greater Ie over morphine; Log IC50 (KOR [6]): −5.71; IC50 (KOR [6]; read-out: IC50): 1950 nM; Ki (KOR [6]; read-out: Ki): 180 nM; half-life ([7]; in vivo): 0.398 h; clearance ([7]; in vivo): 5.7 mL/min/kg; Vd ([7]; in vivo): 0.4 L/kg; opioid-like adverse effects (e.g. respiratory depression, sedation) [7]: no sign of opioid-like adverse effects
CC(C)C[C@H](NC(=O)[C@H](Cc1ccc(Cl)cc1)NC(=O)CN(C)C(=O)[C@@H](N)Cc1ccc(O)cc1)C(=O)N[C@@H](CCCNC(=N)N)C(=O)N[C@H](CCCNC(=N)N)C(=O)NCCCCCCCC(N)=O [SEQ ID NO. 24, NH2-Tyr-Sar-(4-Cl)Phe-Leu-Arg-DArg-C7H14-CONH2] (H-Y[Sar][Phe(4-Cl)]LR[dR][Aoc]-NH2)	–	–	–	> 10000	–	–	> 10000	–	–	–	significantly inhibited	modest desensitisation	bias towards cAMP	some influence over pERK induction	EC50 [2]: 3.87 nM; Efficacy Index (Ie) relative to morphine [1]: statistically significantly greater Ie over morphine; IC50 (KOR [6]): 72.6 nM; Ki (KOR [6]): 6.7 nM; half-life ([7]; plasma): 0.213 h; clearance ([7]; plasma): 26.3 mL/min/kg; Vd ([7]; plasma): 1.7 L/kg; opioid-like adverse effects (e.g. respiratory depression, sedation) [7]: No adverse effects were observed
CC(C)C[C@@H](NC(=O)[C@@H](Cc1ccccc1)NC(=O)[C@H](N)Cc1ccccc1)C(=O)N[C@H](CCCCN)C(=O)N1CCC(N)(C(=O)O)CC1 [SEQ ID NO. 35, DPhe-DPhe-DLeu-DLys-Cap-CO2H, reference compound]	25.93	34.61	10.8	> 10000	0.37	8.07	> 10000	−5.72	3.27	> 16.7	–	significant reduction maximal effect	no bias either way	time and concentration dependent pERK expression	half-life at 100 µM [3]: 17.6 h
CC(C)C[C@H](NC(=O)[C@H](Cc1ccccc1)NC(=O)CNC(=O)CNC(=O)[C@@H](N)Cc1ccc(O)cc1)C(=O)N[C@@H](CCCNC(=N)N)C(=O)N[C@@H](CCCNC(=N)N)C(=O)O [SEQ ID NO. 38, Tyr-Gly-Gly-Phe-Leu-Arg-Arg, reference compound]	–	–	–	–	–	–	–	–	–	> 16.7	–	did not show any desensitisation	–	–	EC50 (Mu opioid receptor (MOR); read-out: Activity (EC50, nM) MOR): 3740 nM; EC50 ([4]; read-out: Activity (EC50, nM) DOR): 870 nM
